Measurements as given in patent publication US20120329860A1, “Uses of Beta-Nicotinamide Adenine Dinucleotide” (MEDICAL COLLEGE OF GEORGIA INSTITUTE, INC, priority 2010, published 2012).

Tests used:
[1] = tested on: pro-inflammatory/anti-inflammatory cytokines gene expression; assay: qPCR of cytokine gene expression in lungs; format: in vivo; settings: LPS/β-NAD vs LPS only mice
Description: Total RNA was prepared from the lung of mouse tissue using RNeasy mini kit (Qiagen, Valencia, Calif.). The mRNA was reverse-transcribed into complementary deoxyribonucleic acid (cDNA) using iScript reagents from Bio-Rad on a programmable thermal cycler (PCR-Sprint, Thermo Electron, Milford, Mass.). 50 ng of cDNA was amplified in each real-time polymerase chain reaction using ABgene reagents (distributed by Fisher Scientific), Bio-Rad myiQ Cycler and Custom-designed primers for genes specific to the mice (Integrated DNA Technologies, Coralville, Iowa). The Reverse transcription reaction was carried out for 25 min at 42° C. and terminated for 5 min at 85° C. Real time PCR was performed by denaturation for 30 sec at 94° C., annealing for 30 sec at 60° C. for a total of 40 cycles. The glyceraldehyde-3-phosphate dehydrogenase (GAPDH) was used to normalize the expression of the target genes.

[2] = tested on: Rac1; assay: G-LISA Rac activation assay in HPAEC; format: cell-based, human; settings: 50 mM β-NAD, time course; basal by 30 min
Description: (§1) Protein extracts were separated by SDS-PAGE, transferred to nitrocellulose membrane and probed with specific antibodies. Horseradish peroxidase-conjugated goat anti-rabbit IgG antibody (Santa Cruz Biotechnology, Santa Cruz, Calif.) was used as the secondary antibody, and immunoreactive proteins were detected using enhanced chemiluminescence detection kit (ECL) according to the manufacturer's protocol (Amersham, Little Chalfont, UK). For quantification, immunoblot data were analyzed using NIH Image 1.63 software. Active Rac1 was determined using G-LISA Rac activation assay according to the manufacturer's recommendations (Cytoskeleton Inc., Denver, Colo.).

[3] = tested on: Myeloperoxidase (MPO); assay: Myeloperoxidase (MPO) activity and staining in lungs; format: in vivo, mice
Description: MPO is a hemoprotein that is abundantly expressed in polymorphonuclear leukocytes (neutrophils) and secreted during their activation. MPO assay was carried out according to the manufacturer's assay protocol (Cayman Chemicals). Lungs of vehicle, LPS or LPS/b-NAD treated mice were used for the MPO assay. Lungs (free of blood) were weighed and snap frozen in liquid nitrogen. The left lung was weighed and homogenized in the lysis buffer and then centrifuged (12,000×g, 30 min). The protein from the clear supernatant was estimated and normalized from different treatment and analyzed for the MPO levels by ELISA. Values represent mean±SEM (n=3).

[4] = tested on: LPS-induced ALI in mice; assay: BAL total protein in LPS-induced lung injury; format: in vivo; settings: β-NAD (i.v.) simultaneously with LPS (i.t.), 18 hr
Description: Female C57BL/6J mice (8-10 weeks old) weighing 20-25 g were purchased from Charles River Laboratory (Wilmington, Mass.). Animals were housed in plastic cages and had access to food and water. The animals were kept at room temperature and exposed to continuous cycles of 12 hr light and darkness.
Mice were anesthetized with ketamine (150 mg/kg) and acetylpromazine (15 mg/kg) intraperitoneally (i.p.) before the exposure of the trachea via neck incision and intubation with 20-guage catheter and the right internal jugular vein was exposed via right chest incision for PBS or b-NAD installation. The mice were randomly divided into groups. […] Simultaneously, mice received either b-NAD (5.4 mg/kg, equivalent to final calculated plasma concentration […] or PBS in the control group intravenously (i.v.) through the internal jugular vein (IJ). The animals were allowed to recover for 18 hr. EBD was given through the IJ 2 hr prior to termination of the experiment. At termination, bronchoalveolar lavage (BAL) was collected. BAL was 1ml of 10% HBSS through the endotracheal catheter immediately on sacrifice with aspiration. BAL was immediately centrifuged and processed. After the BAL, ethylenediaminetetraacetic acid (EDTA) was used to flush the lungs of blood via the right heart ventricle and the lungs were then harvested. […]

[5] = tested on: myosin light chain (MLC) phosphorylation; assay: MLC phosphorylation immunoblot in LPS-treated HPAEC; format: cell-based, human; settings: LPS/β-NAD mixture, 4 hrs
Description: as §1

[6] = tested on: LPS-induced mortality in mice; assay: LPS-induced mortality / survival; format: in vivo
Description: Mice were injected with β-NAD (100 mg/kg, i.p) or vehicle (saline, i.p) 10 min after LPS (20 mg/kg, i.p) challenge. As a treatment strategy, β-NAD was given twice a day (i.p) for 4 days. […]

[7] = tested on: LPS-induced ALI in mice; assay: Evans Blue Dye-albumin (EBD) lung permeability; format: in vivo
Description: Mice were anesthetized with ketamine (150 mg/kg) and acetylpromazine (15 mg/kg) intraperitoneally (i.p.) before the exposure of the trachea via neck incision and intubation with 20-guage catheter and the right internal jugular vein was exposed via right chest incision for PBS or b-NAD installation. The mice were randomly divided into groups. LPS or sterile saline was instilled intratracheally (i.t.) via a 20-gauge catheter. Simultaneously, mice received either b-NAD (5.4 mg/kg, equivalent to final calculated plasma concentration […] or PBS in the control group intravenously (i.v.) through the internal jugular vein (IJ). The animals were allowed to recover for 18 hr. EBD was given through the IJ 2 hr prior to termination of the experiment. At termination, bronchoalveolar lavage (BAL) was collected. BAL was 1ml of 10% HBSS through the endotracheal catheter immediately on sacrifice with aspiration. BAL was immediately centrifuged and processed. After the BAL, ethylenediaminetetraacetic acid (EDTA) was used to flush the lungs of blood via the right heart ventricle and the lungs were then harvested. BAL and lungs were collected and stored at −70° C. for evaluation of lung injury.
Measurement of EBD concentration in the lungs was performed by injection of EBD (20 mg/kg) into the right internal jugular vein 2 hr before the termination of the experiment to assess the vascular leak. Lungs free of blood were weighed and snap frozen in liquid nitrogen. The left lung was weighed and homogenized, then incubated with two volumes of formamide (18 hr, 60° C.) and centrifuged (5000 g, 30 min, 20° C.). The extravasated EBD concentration (mg/g, lung) in the lung homogenate was calculated against a standard curve. In a separate experiment the EBD was injected into the right internal jugular vein as described above at 2 hrs prior to termination of the experiment and the left lung gross anatomy view was photographed with a Leica NCL150 Camera.

[8] = tested on: VE-cadherin-positive cell-cell junctions in HPAEC; assay: VE-cadherin immunofluorescence of HPAEC monolayers; format: cell-based, human; settings: 50 μM b-NAD, 30 minutes
Description: Immunostaining was performed as described (Kolosova et al., 2005, Circ Res 97(2):115-124). The DNA-binding, fluorescent dye 7-amino-actinomycin D (7AAD) was used to stain cell nuclei. The percentage of total cell surface area occupied by VE-cadherin-positive cell-cell junctions was quantitatively determined using Zeiss Microscope quantification Software.

NC(=O)C1=CN([C@@H]2O[C@H](COP(=O)(O)OP(=O)(O)OC[C@H]3O[C@@H](n4cnc5c(N)ncnc54)[C@H](O)[C@@H]3O)[C@@H](O)[C@H]2O)C=CC1 [β-NAD, beta-nicotinamide adenine dinucleotide] was tested, and the “anti-inflammatory cytokines (IL-4, IL-10, and IL-13) gene expression in lungs” value [1] was “elevated”, the “proinflammatory cytokines (IL-1α, IL-1β, IFN-γ and TNF-α) gene expression in lungs” value [1] was “substantially or markedly downregulated” and the Rac1 activation [2] was “dramatic β-NAD-dependent activation of Rac1 at early time points”. For the same compound, the “MPO staining of lung sections (neutrophil infiltration)” value ([3]; LPS with β-NAD treatment) was “attenuated the LPS-induced myeloperoxidase”, the “MPO activity in lungs” value ([3]; LPS/b-NAD vs LPS challenged mice) was “attenuated MPO activity” and the “MPO activity in lungs, β-NAD alone” value ([3]; β-NAD alone, no LPS) was “no effect”. For the same compound, the “LPS-induced BAL protein accumulation” value [4] was “significantly attenuated”, the “LPS-stimulated MLC phosphorylation” value [5] was “significantly inhibited” and the “mortality, LPS vs. LPS/β-NAD” value ([6]; 15 day study) was “significantly reduced morality”. For the same compound, the “survival after LPS challenge” value ([6]; LPS 20 mg/kg i.p., β-NAD 100 mg/kg i.p. twice a day, 4 days) was “recovered and lived longer”, the “survival, β-NAD alone” value ([6]; β-NAD alone, no LPS) was “no effect” and the “EBD leakage into lung parenchyma on gross examination” value ([7]; LPS 0.9 mg/kg i.t. and b-NAD 5.46 mg/kg, 24 hr) was “minimal leakage”. For the same compound, the “EBD-albumin in lung (average)” value ([7]; b-NAD/LPS treated mice) was 10.41 µg/g, the “EBD-albumin in lung (average)” value ([7]; β-NAD/saline control (no LPS)) was 6.54 µg/g and the “VE-cadherin recruitment to cell-cell junctions” value [8] was “Appreciably more VE-cadherin was recruited to the area of cell-cell junctions”. The “percentage of total cell-surface area occupied by VE-cadherin-positive cell-cell junctions (mean)” value ([8]; 20 cells per group, control 17.42%) was 61.03%.
